Data: patent US8618289B2 (Ambit Biosciences Corporation, priority 2008, dated 2013)
Counter-ions that a name gives are not always drawn.

Key:
A375 cells = assay: cells; conditions: Homo sapiens, A-375, read-out: A375 Viability EC50
Experimental: The following day, the medium was replaced with 0.5% FBS in M3 for overnight incubation. […] The cells were incubated with compound or control for 72 hours at 37° C. under 10% CO2. Following incubation, Cell Titer Blue reagent (Promega) was added to each well containing compounds or controls, and then incubated for 3 hours at 37° C. under 10% CO2. Proliferation was measured by fluorescence with excitation at 560 nm and emission at 590 nm using SoftMax Pro.

RAF kinases [1] = target: RAF kinases (Homo sapiens, UniProt P04049); assay: biochemical
[2] = system: MEK1 phosphorylation in the A375 human melanoma cell line; assay: cells; conditions: A-375, read-out: pMEK IC50
Experimental: A375 cells (from American Type Culture Collection) were plated at 50,000 cells per well in DMEM (Mediatech) with 10% fetal bovine serum (Omega Scientific) into a 96 well plate and incubated overnight in a 37° C. incubator with 10% CO2. The cells were then washed with PBS and the medium replaced with 0.5% FBS for incubation overnight. […] The cells were incubated with compound or control for two hours at 37° C. The compound solution was aspirated off and the cells washed with cold PBS. […] The plate was centrifuged for 30 minutes to pellet out the cell debris. The cleared lysates were transferred to a 96-well Nunc plate and the ELISA protocol described by the manufacturer in Catalog #KHO0321 or KHO0291 was followed.

RAF kinases [3] = target: RAF kinases (Homo sapiens, UniProt P15056); assay: biochemical
Chain of RAF kinases (Homo sapiens, UniProt P15056) (P15056 whole entry): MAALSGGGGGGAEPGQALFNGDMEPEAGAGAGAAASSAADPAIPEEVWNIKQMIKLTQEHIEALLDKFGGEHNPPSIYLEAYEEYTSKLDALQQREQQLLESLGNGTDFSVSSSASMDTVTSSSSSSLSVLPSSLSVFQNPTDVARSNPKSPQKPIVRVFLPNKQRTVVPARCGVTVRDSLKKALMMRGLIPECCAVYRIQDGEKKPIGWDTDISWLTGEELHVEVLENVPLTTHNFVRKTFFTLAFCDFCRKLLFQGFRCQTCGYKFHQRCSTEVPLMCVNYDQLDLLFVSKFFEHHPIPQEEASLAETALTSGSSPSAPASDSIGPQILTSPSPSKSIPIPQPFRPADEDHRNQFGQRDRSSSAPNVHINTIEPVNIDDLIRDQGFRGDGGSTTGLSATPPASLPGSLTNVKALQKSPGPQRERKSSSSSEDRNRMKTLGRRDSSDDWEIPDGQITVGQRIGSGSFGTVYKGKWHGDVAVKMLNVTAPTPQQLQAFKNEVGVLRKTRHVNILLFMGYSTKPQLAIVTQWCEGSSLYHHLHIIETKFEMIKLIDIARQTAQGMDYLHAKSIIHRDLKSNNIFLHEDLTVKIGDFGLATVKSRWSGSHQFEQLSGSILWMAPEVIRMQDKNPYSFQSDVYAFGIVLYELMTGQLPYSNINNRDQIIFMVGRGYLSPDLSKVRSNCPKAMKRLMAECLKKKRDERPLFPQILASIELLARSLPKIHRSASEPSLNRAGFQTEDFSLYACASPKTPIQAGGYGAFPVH

Chain of RAF kinases (Homo sapiens, UniProt P04049) (P04049 whole entry): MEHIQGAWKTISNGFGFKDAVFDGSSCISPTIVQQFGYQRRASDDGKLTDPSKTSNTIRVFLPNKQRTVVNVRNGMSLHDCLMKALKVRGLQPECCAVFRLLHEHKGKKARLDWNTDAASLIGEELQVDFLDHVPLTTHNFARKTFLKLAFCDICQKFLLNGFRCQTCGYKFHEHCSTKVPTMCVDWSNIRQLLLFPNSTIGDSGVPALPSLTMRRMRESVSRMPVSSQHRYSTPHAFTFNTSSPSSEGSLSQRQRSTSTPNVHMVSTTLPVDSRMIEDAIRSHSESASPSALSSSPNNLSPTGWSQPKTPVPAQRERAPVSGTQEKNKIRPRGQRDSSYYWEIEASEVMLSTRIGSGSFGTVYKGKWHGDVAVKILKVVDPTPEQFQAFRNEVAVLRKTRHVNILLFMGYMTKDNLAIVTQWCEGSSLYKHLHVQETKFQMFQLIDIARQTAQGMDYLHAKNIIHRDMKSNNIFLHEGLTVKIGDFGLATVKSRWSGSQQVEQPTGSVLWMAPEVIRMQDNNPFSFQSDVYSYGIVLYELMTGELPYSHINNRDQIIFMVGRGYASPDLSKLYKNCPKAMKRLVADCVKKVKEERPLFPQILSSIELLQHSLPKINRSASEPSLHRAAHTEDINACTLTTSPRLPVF

| SMILES | EC50 (A375 cells) [nM] | Kd (RAF kinases [1]) [nM] | IC50 [2] [nM] | Kd (RAF kinases [3]) [nM] |
| --- | --- | --- | --- | --- |
| COc1cc2ncnc(Oc3cccc(NC(=O)Nc4cc(C(C)(C)C)on4)c3)c2cc1OC [Ex 1, 1-(5-tert-butylisoxazol-3-yl)-3-(3-(6,7-dimethoxyquinazolin-4-yloxy)phenyl)urea] | 500 to 1000 | 250 to 500 | < 250 |  |
| CCOc1cc2ncnc(Oc3cccc(NC(=O)Nc4cc(C(C)(C)C)on4)c3)c2cc1OC [Ex 6, 1-(5-tert-butylisoxazol-3-yl)-3-[3-(7-ethoxy-6-methoxyquinazolin-4-yloxy)phenyl]urea hydrochloride] | 250 to 500 | 500 to 1000 | < 250 |  |
| COc1cc2ncnc(Oc3cc(NC(=O)Nc4cc(C(C)(C)C)on4)ccc3F)c2cc1OC [Ex 9, 1-(5-tert-butylisoxazol-3-yl)-3-(3-(6,7-dimethoxyquinazolin-4-yloxy)-4-fluorophenyl)urea] | < 250 | 500 to 1000 | < 250 |  |
| CCOc1cc2c(Oc3cccc(NC(=O)Nc4cc(C(C)(C)C)on4)c3)ncnc2cc1OC [Ex 11, 1-(5-tert-butylisoxazol-3-yl)-3-(3-(6-ethoxy-7-methoxyquinazolin-4-yloxy)phenyl)urea] | < 250 | 500 to 1000 | < 250 |  |
| COc1cc2c(Oc3cccc(NC(=O)Nc4cc(C(C)(C)C)on4)c3)ncnc2cc1OCCCN1CCN(CCO)CC1 [Ex 30, 1-(5-tert-butylisoxazol-3-yl)-3-(3-(7-(3-(4-(2-hydroxyethyl)piperazin-1-yl)propoxy)-6-methoxyquinazolin-4-yloxy)phenyl)urea] | < 250 | 250 to 500 | < 250 |  |
| COCCOc1ccc2ncnc(Oc3cccc(NC(=O)Nc4cc(C(C)(C)C)on4)c3)c2c1 [Ex 40, 1-(5-tert-butylisoxazol-3-yl)-3-(3-(6-(2-methoxyethoxy)quinazolin-4-yloxy)phenyl)urea] | 500 to 1000 | 250 to 500 | < 250 |  |
| COc1cc2ncnc(Sc3cccc(NC(=O)Nc4cc(C(C)(C)C)on4)c3)c2cc1OCCCN1CCN(CCO)CC1 [Ex 61, 1-(5-tert-butylisoxazol-3-yl)-3-(3-(6-(3-(4-(2-hydroxyethyl)piperazin-1-yl)propoxy)-7-methoxyquinazolin-4-ylthio)phenyl)urea] | > 1000 |  | > 1000 | 250 to 500 |
| COc1cc2ncnc(Sc3cccc(NC(=O)Nc4cc(C(C)(C)C)on4)c3)c2cc1OCCCN1CCS(=O)(=O)CC1 [Ex 62, 1-(5-tert-butyl-isoxazol-3-yl)-3-(3-{6-[3-(1,1-dioxo-thiomorpholin-4-yl)-propoxy]-7-methoxy-quinazolin-4-ylsulfanyl}-phenyl)-urea] | < 250 |  | < 250 | 250 to 500 |
| COc1cc2ncnc(Sc3cccc(NC(=O)Nc4cc(C(C)(C)C)on4)c3)c2cc1OCCCN1CCOCC1 [Ex 63, 1-(5-tert-butylisoxazol-3-yl)-3-(3-(7-methoxy-6-(3-morpholinopropoxy)quinazolin-4-ylthio)phenyl)urea] | 500 to 1000 |  | < 250 | 250 to 500 |
| COc1cc2ncnc(Sc3cccc(NC(=O)Nc4cc(C(C)(C)C)on4)c3)c2cc1OCCN1CCCCC1 [Ex 65, 1-(5-tert-butylisoxazol-3-yl)-3-(3-(7-methoxy-6-(2-(piperidin-1-yl)ethoxy)quinazolin-4-ylthio)phenyl)urea] | > 1000 | 500 to 1000 | 250 to 500 |  |
| COc1cc2ncnc(Sc3cccc(NC(=O)Nc4cc(C(C)(C)C)on4)c3)c2cc1OCCN1CCOCC1 [Ex 70, 1-(5-tert-butylisoxazol-3-yl)-3-(3-(7-methoxy-6-(2-morpholinoethoxy)quinazolin-4-ylthio)phenyl)urea] | < 250 |  | < 250 | 250 to 500 |
| COc1cc2c(Sc3cccc(NC(=O)Nc4cc(C(C)(C)C)on4)c3)ncnc2cc1OCCCN1CCC(CO)CC1 [Ex 74, 1-(5-tert-butylisoxazol-3-yl)-3-(3-(7-(3-(4-(hydroxymethyl)piperidin-1-yl)propoxy)-6-methoxyquinazolin-4-ylthio)phenyl)urea] | 250 to 500 |  | < 250 | 250 to 500 |
| COc1cc2c(Oc3cccc(NC(=O)Nc4cc(C(C)(C)C)on4)c3)ncnc2cc1O[C@H]1CCNC1 [Ex 96, (S)-1-(5-tert-butylisoxazol-3-yl)-3-(3-(6-methoxy-7-(pyrrolidin-3-yloxy)quinazolin-4-yloxy)phenyl)urea dihydrochloride] | > 1000 |  | 250 to 500 | 250 to 500 |
| COc1cc2c(Oc3cccc(NC(=O)Nc4cc(C(C)(C)C)on4)c3)ncnc2cc1O[C@@H]1CCNC1 [Ex 98, (R)-1-(5-tert-butylisoxazol-3-yl)-3-(3-(6-methoxy-7-(pyrrolidin-3-yloxy)quinazolin-4-yloxy)phenyl)urea dihydrochloride] | > 1000 |  | 500 to 1000 | 250 to 500 |
| COc1cc2ncnc(Oc3cccc(NC(=O)Nc4cc(C(C)(C)C)on4)c3)c2cc1O [Ex 107, 1-(5-tert-butylisoxazol-3-yl)-3-(3-(6-hydroxy-7-methoxyquinazolin-4-yloxy)phenyl)urea] | 250 to 500 |  | < 250 | 250 to 500 |
| COc1cc2ncnc(Oc3cccc(NC(=O)Nc4cc(C(C)(C)C)on4)c3)c2cc1O[C@H]1CCN(CC(F)F)C1 [Ex 110, (S)-1-(5-tert-butylisoxazol-3-yl)-3-(3-(6-(1-(2,2-difluoroethyl)pyrrolidin-3-yloxy)-7-methoxyquinazolin-4-yloxy)phenyl)urea] | < 250 |  | < 250 | 250 to 500 |
| COc1cc2ncnc(Oc3cccc(NC(=O)Nc4cc(C(C)(C)C)on4)c3)c2cc1OC[C@@H](O)CN1CCN(C)CC1 [Ex 111, (S)-1-(5-tert-butylisoxazol-3-yl)-3-(3-(6-(2-hydroxy-3-(4-methylpiperazin-1-yl)propoxy)-7-methoxyquinazolin-4-yloxy)phenyl)urea] | 250 to 500 |  | < 250 | 250 to 500 |
| COc1cc2ncnc(Oc3cccc(NC(=O)Nc4cccc(C(C)(C)C)c4)c3)c2cc1OC [Ex 118, 1-(3-tert-butylphenyl)-3-(3-(6,7-dimethoxyquinazolin-4-yloxy)phenyl)urea] | > 1000 |  | 250 to 500 | 250 to 500 |
| COc1cc2ncnc(Sc3cccc(NC(=O)Nc4cccc(C(C)(C)C)c4)c3)c2cc1OC [Ex 120, 1-(3-tert-butylphenyl)-3-(3-(6,7-dimethoxyquinazolin-4-ylthio)phenyl)urea] | > 1000 |  | 250 to 500 | 250 to 500 |
| COc1cc2ncnc(Oc3cccc(NC(=O)Nc4cc(C(C)(C)CO)on4)c3)c2cc1OC [Ex 131, 1-(3-(6,7-dimethoxyquinazolin-4-yloxy)phenyl)-3-(5-(1-hydroxy-2-methylpropan-2-yl)isoxazol-3-yl)urea] | > 1000 |  | 500 to 1000 | 250 to 500 |
| COc1cc2ncnc(Oc3cccc(NC(=O)Nc4ccc(OC)c(C(F)(F)F)c4)c3)c2cc1OC [Ex 138, 1-(3-(6,7-dimethoxyquinazolin-4-yloxy)phenyl)-3-(4-methoxy-3-(trifluoromethyl)phenyl)urea] | > 1000 |  | 250 to 500 | 250 to 500 |
| COc1cc2ncnc(Oc3cccc(NC(=O)Nc4cccc(C(C)C)c4)c3)c2cc1OC [Ex 144, 1-(3-(6,7-dimethoxyquinazolin-4-yloxy)phenyl)-3-(3-isopropylphenyl)urea] | > 1000 |  | 250 to 500 | 250 to 500 |
| COc1cc2ncnc(Oc3cccc(NC(=O)Nc4cc(CN5CCOCC5)cc(C(F)(F)F)c4)c3)c2cc1OC [Ex 151, 1-(3-(6,7-dimethoxyquinazolin-4-yloxy)phenyl)-3-(3-(morpholinomethyl)-5-(trifluoromethyl)phenyl)urea] | > 1000 | 250 to 500 | > 1000 |  |
| COc1cc2ncnc(Oc3cccc(NC(=O)Nc4cc(C(C)(CF)CF)on4)c3)c2cc1OC [Ex 162, 1-[5-(1,3-difluoro-2-methylpropan-2-yl)isoxazol-3-yl]-3-[3-(6,7-dimethoxyquinazolin-4-yloxy)phenyl]urea] | < 250 |  | < 250 | 250 to 500 |
| COc1cc2ncnc(Oc3cccc(NC(=O)Nc4ccc(OC(F)(F)F)cc4)c3)c2cc1OC [Ex 177, 1-(3-(6,7-dimethoxyquinazolin-4-yloxy)phenyl)-3-(4-(trifluoromethoxy)phenyl)urea] | > 1000 |  | > 1000 | 250 to 500 |
| COc1cc2ncnc(Oc3cccc(NC(=O)Nc4ccc(C(F)(F)F)cc4)c3)c2cc1OC [Ex 183, 1-(3-(6,7-dimethoxyquinazolin-4-yloxy)phenyl)-3-(4-(trifluoromethyl)phenyl)urea] | > 1000 |  | 500 to 1000 | 250 to 500 |
| COc1cc2ncnc(Sc3cccc(NC(=O)Nc4cccc(C(F)(F)F)c4)c3)c2cc1OC [Ex 185, 1-(3-(6,7-dimethoxyquinazolin-4-ylthio)phenyl)-3-(3-(trifluoromethyl)phenyl)urea] | > 1000 |  | 500 to 1000 | 250 to 500 |
| COc1cc2ncnc(Sc3cccc(NC(=O)Nc4cc(C(C)(C)F)no4)c3)c2cc1OC [Ex 187, 1-(3-(6,7-dimethoxyquinazolin-4-ylthio)phenyl)-3-(3-(2-fluoropropan-2-yl)isoxazol-5-yl)urea] | > 1000 |  | < 250 | 250 to 500 |
| COc1cc2ncnc(Sc3cccc(NC(=O)Nc4cc(C(C)(CF)CF)on4)c3)c2cc1OC [Ex 191, 1-[5-(1,3-difluoro-2-methylpropan-2-yl)isoxazol-3-yl]-3-[3-(6,7-dimethoxyquinazolin-4-ylthio)phenyl]urea] | < 250 |  | < 250 | 250 to 500 |
| COc1cc2ncnc(Sc3cccc(NC(=O)Nc4cc(C5CCCC5)on4)c3)c2cc1OC [Ex 201, 1-(5-cyclopentylisoxazol-3-yl)-3-(3-(6,7-dimethoxyquinazolin-4-ylthio)phenyl)urea] | > 1000 |  | 250 to 500 | 250 to 500 |
